From paper PMC2746312, “A High-Throughput Approach for Identification of Novel General Anesthetics” (PLoS ONE, 2009)
“Also recorded” adds a separate entry of the source. Where a name gives a salt, the structure may show the parent alone. Read-outs that look alike come from different tables or passages of the source.

How the values were obtained:
horse spleen apoferritin = molecular target: T1, horse spleen apoferritin (Equus caballus, UniProt P02791); assay: 1-AMA/apoferritin fluorescence competition assay, qHTS in 1,536-well format; format: binding; settings: for inhibition at 77 µM: read-out: inhibition at maximal concentrations in qHTS
T1 sequence (P02791 2-175 limits assumed): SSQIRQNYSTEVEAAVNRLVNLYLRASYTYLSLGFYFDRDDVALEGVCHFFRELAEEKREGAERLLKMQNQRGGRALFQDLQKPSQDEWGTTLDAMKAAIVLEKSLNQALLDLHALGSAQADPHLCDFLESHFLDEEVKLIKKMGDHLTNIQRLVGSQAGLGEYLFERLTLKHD
Experimental: The previously-reported apoferritin-1-AMA binding assay was miniaturized to 3 µL in 1,536-well plates.
Throughout the screen, reagent bottles and all liquid lines were made light-tight to minimize reagent degradation. Activity was computed as the normalized fluorescence response relative to free 1-AMA and 1-AMA/apoferritin complex values. Concentration–effect relationships were derived by using publicly-available curve-fitting algorithms developed in-house (http://ncgc.nih.gov/pub/openhts/). A four parameter Hill equation was fitted to the concentration-response data by minimizing the residual error between the modeled and observed responses.

apoferritin = molecular target: T2, apoferritin (Equus caballus, UniProt P02791); assay: Isothermal titration calorimetry (ITC) of compound into apoferritin; settings: for ITC evidence of binding (in words): enthalpogram
T2 sequence (P02791 2-175 limits assumed): T1 sequence (P02791 2-175 limits assumed)

[1] = computed directly from 1-AMA inhibition data, infinite value fixed to -70%, seven concentrations 77 µM to 25 nM, read-out: qHTS IC50

O=Nc1ccc2oc(=O)ccc2c1 [N-8403, 6-Nitroso-1,2-benopyrone]
IC50 (horse spleen apoferritin; [1]): 107 µM
Kd (apoferritin): 37.9 µM

Cc1cc(C(C)(C)C)cc(C)c1CC1=NCCN1 [X-6000, Xylometazoline hydrochloride]
IC50 (horse spleen apoferritin): 167 µM
Kd (apoferritin): 177 µM

CCSC(=N)Nc1ccc(C(F)(F)F)cc1 [T7188, TFPI hydrochloride]
IC50 (horse spleen apoferritin; [1]): 98 µM
Kd (apoferritin): 25.3 µM

N#C/C(=C\c1ccc(O)c(O)c1)C(N)=S [T-7540, Tyrphostin 47]
IC50 (horse spleen apoferritin; [1]): 219 µM
Kd (apoferritin): 189 µM

CC1(C)CCC2=C(O1)c1ccccc1C(=O)C2=O [L-2037, β-Lapachone]
IC50 (horse spleen apoferritin; [1]): 33 µM

Cc1ccc(O)c(/N=N/c2ccccc2)n1 [S-9186, SIB 1757]
IC50 (horse spleen apoferritin; [1]): 42 µM

CC(N)c1cccc(Cl)c1Cl (racemic) [D-103, (±)-2,3-Dichloro-alpha-methylbenzylamine hydrochloride]
IC50 (horse spleen apoferritin; [1]): 94 µM
Kd (apoferritin): 506 µM

C#CCN(C)C(C)Cc1ccccc1 (stereo not drawn) [M-003, R-(-)-Deprenyl hydrochloride]
IC50 (horse spleen apoferritin): 100 µM
Kd (apoferritin): 74 µM

CN(N=O)c1ccc(O)c(O)c1 [M-9440, Methyl-3,4-dephostatin]
IC50 (horse spleen apoferritin): 155 µM
Kd (apoferritin): 284 µM

COc1ccc2c(c1)/C(=C/c1cnc[nH]1)C(=O)N2 [S-1693, SU 9516]
inhibition at 77 µM (horse spleen apoferritin): ~30%
IC50 (horse spleen apoferritin; [1]): 88 µM
ITC evidence of binding (in words) (apoferritin): failed to provide convincing evidence of binding

CCOC(=O)C(C)(C)Oc1ccc(Cl)cc1 [C-6643, Clofibrate]
IC50 (horse spleen apoferritin; [1]): 105 µM
Kd (apoferritin): 11.5 µM

c1ccc([C@H]2CN3CCSC3=N2)cc1 [L-9756, (-)-Tetramisole hydrochloride]
IC50 (horse spleen apoferritin; [1]): 194 µM
Kd (apoferritin): 233 µM

O=c1oc(Cl)c(Cl)c2ccccc12 [D-7910, 3,4-Dichloroisocoumarin]
IC50 (horse spleen apoferritin; [1]): 129 µM

C=C1C(=O)O[C@H]2[C@H]1CC/C(C)=C/CC[C@@]1(C)O[C@@H]21 [P-0667, Parthenolide]
IC50 (horse spleen apoferritin; [1]): 68 µM
Kd (apoferritin): 35.9 µM

Oc1ccc(C2CNCc3sccc32)cc1O (stereo not drawn) [S-3066, SKF-89626 hydrobromide]
inhibition at 77 µM (horse spleen apoferritin): ~30%
ITC evidence of binding (in words) (apoferritin): does not; also recorded: failed to provide convincing evidence of binding

S=C([S-])OC1CC2CC1C1CCCC21.[K+] (stereo not drawn) [T-8543, O-Tricyclo[5.2.1.0^2,6]dec-9-yl dithiocarbonate potassium salt]
IC50 (horse spleen apoferritin; [1]): 16 µM
Kd (apoferritin): 12.3 µM
ITC evidence of binding (in words) (apoferritin): clear exothermic binding behavior

Cc1cccc(C#Cc2ccccc2)n1 [M-5435, 6-Methyl-2-(phenylethynyl)pyridine]
IC50 (horse spleen apoferritin; [1]): 152 µM
Kd (apoferritin): 313 µM

CC(C)c1cccc(C(C)C)c1O [D-126608, 2,6-diisopropylphenol (propofol)]
IC50 (horse spleen apoferritin): 67 µM
qHTS screen outcome (in words) (horse spleen apoferritin; LOPAC1280 screen with filters): successfully identified in this screen
Kd (apoferritin): 5 µM
